Measurements as given in US12377110B2, “Fospropofol methods and compositions” (Epalex Corporation, priority 2019, dated 2025).

Tests used:
[1] = test system: Sprague-Dawley rats; assay: Study No. 15-3 (GLP): 14-day once daily oral gavage toxicity of fospropofol disodium; type: in vivo
Experimental: (§1) The purpose of Study No. 15-3 (GLP) was to determine the potential toxicity of fospropofol in Sprague-Dawley rats when administered once daily by oral gavage for 14 days. […] The cause of death for the three 250 mg/kg/day group main study females found dead could not be determined, but was considered related to the pharmacodynamic effects of fospropofol, based on the time of death relative to the time of close administration, and the clinical signs recorded before death. Clinical observations during the closing period for these animals included labored breathing, prostrate, splayed hindlimbs, uncoordinated movement, decreased activity, and eyes closed.
(§2) Pivotal GLP 14-day repeat-close toxicity studies with 7-day recovery periods were conducted in Sprague-Dawley rats (Study No. 15-3) and Beagle dogs (Study No. 15-4). […] The cause of death for these animals was considered to be related to the known pharmacodynamic effects of high doses of fospropofol, based on the time of death relative to the time of close administration, and the clinical signs recorded before death which included: labored breathing, prostrate, splayed hindlimbs, uncoordinated movement, decreased activity, and eyes closed. […] The NOAEL was determined to be 100 mg/kg/day (600 mg/m^2/day) in male and female Sprague-Dawley rats.

[2] = as above; type: in vivo, Sprague-Dawley rats; conditions: both sexes, rat, in vivo; 14 days once daily oral gavage, Sprague-Dawley rats
Experimental: as §1, §2

[3] = test system: adult women and men experiencing moderate to severe migraine headache; assay: Study A17: safety-tolerability (TEAEs); conditions: N = 18, 800 mg oral
Experimental: The study is planned to complete approximately 85 subjects. • Enrolled subjects will be asked to come to the study site for treatment when they experience a qualifying migraine headache. Dosing must occur within 4 hours after onset of the migraine symptoms. If treatment at the study site is not feasible or practicable within 4 hours after onset of migraine symptoms, subjects should use their usual medication for that headache and attempt to visit the clinic for treatment as soon as possible (within 4 hours) after onset of their next migraine headache. Dosing must occur within 60 days after enrollment (see Post-enrollment Period below). • At clinic check-in for treatment, study personnel will verify eligibility for closing regarding the criteria for a qualifying headache and adherence to post-enrollment study restrictions (see Eligibility for Dosing below). • Treatment will consist of a single oral dose of fospropofol disodium. […] Because the prevalence of migraine headaches is higher in women than in men, efforts will be made to enroll at least 50% women. • Subjects must meet the general inclusion and exclusion criteria listed below (Inclusion Criteria and Exclusion Criteria) at screening to be enrolled in the study. To be eligible for fospropofol disodium treatment after onset of a migraine headache, enrolled subjects must meet criteria specific to the presenting headache at clinic check-in (see Qualifying Headache below) and adhere to study restrictions specific to the period between enrollment and clinic check-in (see Post-enrollment Restrictions below). • Inclusion Criteria Subjects must meet all of the following criteria at screening to be enrolled in the study: • 1. Written informed consent approved by the Institutional Review Board (IRB) given before any study-related procedures are performed • 2. […] Complete abstinence alone can be used as a method of contraception. • 6. […] Able to comprehend the nature of the study, capable of giving written informed consent, and able to communicate effectively with clinic staff (as assessed by the investigator) • 8. Available to volunteer for the entire study duration and willing to adhere to all protocol requirements, including the post-enrollment restrictions (see Post-enrollment Restrictions below) • 9. Agrees not to post any information related to the study on any website or social media site (e.g., Facebook, Twitter, LinkedIn, Google+, etc.) until the entire trial has been completed • 10. Willing to forgo rescue medicine for at least 2 hours after initiation of treatment with study drug (see In-Clinic Rescue Medicine) • Exclusion Criteria Subjects to whom any of the following criteria apply at screening will be excluded: • 1. History of hemiplegic migraine (at any time in the past). • 2. History of headaches of any type occurring on ≥15 days/month during any of the 3 months prior to screening. • 3.

[4] = test system: Beagle dogs; assay: Study No. 15-2 (non-GLP): MTD and 7-day once daily oral gavage toxicity of fospropofol disodium; type: in vivo
[5] = as above; type: in vivo, Beagle dogs; conditions: dog, in vivo, Beagle dogs

## CC(C)c1cccc(C(C)C)c1OCOP(=O)([O-])O.[Na+] [fospropofol disodium]
[1]; 0, 50, 100, and 250 mg/kg/day for 14 consecutive days
  Mortality: treatment-related mortalities at 250 mg/kg/day
[1]; 250 mg/kg/day
  Body weight gain: reduced body weight gain
  Prothrombin time: transient increase in prothrombin time
[1]; 250 mg/kg/day main study females found dead
  Gross observations and microscopic findings: no treatment-related gross observations or microscopic findings
[1]; 14 days once daily oral gavage, Sprague-Dawley rats
  NOAEL: 600 mg/m^2/day
[1]; high dose level (250 mg/kg/day), 14 days
  Mortalities: 4
[1]; up to 250 mg/kg/day
  Histopathology, all tissues including GIT-related: no treatment-related histopathology findings
[2]
  NOAEL at 14 days: 100 mg/kg/day
[3]; Mild
  Number of TEAEs, E, by severity: 5
  Number of subjects with at least 1 TEAE, by severity: 3
[3]; Moderate
  Number of TEAEs, E, by severity: 3
  Number of subjects with at least 1 TEAE, by severity: 3^1
[3]
  Dry mouth: number of TEAEs, E: 1
  Dry mouth: subjects with TEAE, %: 7.7%
  Dysgeusia: number of TEAEs, E: 1
  Dysgeusia: subjects with TEAE, %: 5.6%
  Gastrointestinal disorders: number of TEAEs, E: 2
  Gastrointestinal disorders: subjects with TEAE, %: 11.1%
  Genital paraesthesia: number of TEAEs, E: 2
  Genital paraesthesia: subjects with TEAE, %: 5.6%
  Nausea: number of TEAEs, E: 1
  Nausea: subjects with TEAE, %: 7.7%
  Nervous system disorders: number of TEAEs, E: 4
  Nervous system disorders: subjects with TEAE, %: 16.7%
  Number of TEAEs, E: 9
  Paraesthesia: number of TEAEs, E: 2
  Paraesthesia: subjects with TEAE, %: 11.1%
  Pruritus: number of TEAEs, E: 1
  Pruritus: subjects with TEAE, %: 5.6%
  Reproductive system and breast disorders: number of TEAEs, E: 2
  Reproductive system and breast disorders: subjects with TEAE, %: 5.6%
  Skin and subcutaneous tissue disorders: number of TEAEs, E: 1
  Skin and subcutaneous tissue disorders: subjects with TEAE, %: 5.6%
  Somnolence: number of TEAEs, E: 1
  Somnolence: subjects with TEAE, %: 5.6%
  Subjects with at least 1 TEAE, %: 33.3%
[3]; Possibly related
  Relation of TEAEs to study drug: Dry mouth: 0
  Relation of TEAEs to study drug: Dysgeusia: 0
  Relation of TEAEs to study drug: Gastrointestinal disorders: 1
  Relation of TEAEs to study drug: Genital paraesthesia: 0
  Relation of TEAEs to study drug: Nausea: 1
  Relation of TEAEs to study drug: Nervous system disorders: 0
  Relation of TEAEs to study drug: Number of TEAEs, E: 2
  Relation of TEAEs to study drug: Paraesthesia: 0
  Relation of TEAEs to study drug: Pruritus: 1
  Relation of TEAEs to study drug: Reproductive system and breast disorders: 0
  Relation of TEAEs to study drug: Skin and subcutaneous tissue disorders: 1
  Relation of TEAEs to study drug: Somnolence: 0
[3]; Probably related
  Relation of TEAEs to study drug: Dry mouth: 1
  Relation of TEAEs to study drug: Dysgeusia: 1
  Relation of TEAEs to study drug: Gastrointestinal disorders: 1
  Relation of TEAEs to study drug: Genital paraesthesia: 2
  Relation of TEAEs to study drug: Nervous system disorders: 4
  Relation of TEAEs to study drug: Number of TEAEs, E: 7
  Relation of TEAEs to study drug: Paraesthesia: 2
  Relation of TEAEs to study drug: Pruritus: 0
  Relation of TEAEs to study drug: Reproductive system and breast disorders: 2
  Relation of TEAEs to study drug: Skin and subcutaneous tissue disorders: 0
  Relation of TEAEs to study drug: Somnolence: 1
[3]; Severe
  Number of TEAEs, E, by severity: 1
  Number of subjects with at least 1 TEAE, by severity: 1^1
[4]; Beagle dogs
  MTD: 3200 mg/m^2/day
[4]; single fospropofol doses up to 120 mg/kg or 120 and 160 mg/kg/day once daily for 7 days
  Tolerability: tolerated at all closes with no mortality or adverse findings
[5]
  MTD at 7 days: 160 mg/kg/day
